In patent US6831087B2, “Pyridine substituted isoquinoline derivatives” (Hoffmann-La Roche Inc., priority 2001, dated 2004):
Structures can show the parent of a compound that is named as a salt.

molecular target: T1, NMDA-receptor subtype 2B (Rattus norvegicus, UniProt P35439+Q00960); test: 3H-Ro 25-6981 binding (displacement) on rat brain membranes; settings: displacement of 5 nM 3H-Ro 25-6981, rat whole brain minus cerebellum and medulla oblongata membranes, 2 hours at 4° C., pH 7.4
T1 construct: Membranes were prepared by homogenization of the whole brain minus cerebellum and medulla oblongata; from tissue; host or cells: rat whole brain minus cerebellum and medulla oblongata (membranes)
Experimental: ^3H-Ro 25-6981 binding (Ro 25-6981 is [R-(R*,S*)]-α-(4-hydroxy-phenyl)-β-methyl-4-(phenyl-methyl)-1-piperidine propanol)
Male Füllinsdorf albino rats weighing between 150-200 g were used. Membranes were prepared by homogenization of the whole brain minus cerebellum and medulla oblongata with a Polytron (10.000 rpm, 30 seconds), in 25 volumes of a cold Tris-HCl 50 mM, EDTA 10 mM, pH 7.1 buffer. The homogenate was centrifuged at 48,000 g for 10 minutes at 4° C. The pellet was resuspended using the Polytron in the same volume of buffer and the homogenate was incubated at 37° C. for 10 minutes. After centrifugation the pellet was homogenized in the same buffer and frozen at −80° C. for at least 16 hours but not more than 10 days. For the binding assay the homogenate was thawed at 37° C., centrifuged and the pellet was washed three times as above in a Tris-HCl 5 mM, pH 7.4 cold buffer. The final pellet was resuspended in the same buffer and used at a final concentration of […].
^3H-Ro 25-6981 binding experiments were performed using a Tris-HCl 50 mM, pH 7.4 buffer. For displacement experiments 5 nM of ^3H-Ro 25-6981 were used and non specific binding was measured using 10 mM of tetrahydroisoquinoline and usually it accounts for 10% of the total. The incubation time was 2 hours at 4° C. and the assay was stopped by filtration on Whatmann GF/B glass fiber filters (Unifilter-96, Packard, Zurich, Switzerland). The filters were washed 5 times with cold buffer. The radioactivity on the filter was counted on a Packard Top-count microplate scintillation counter after addition of […] of microscint 40 (Canberra Packard S. A., Züirich, Switzerland).
The above procedure was performed to determine data for calculation of an IC50 value. The IC50 value is a concentration expressed in micromoles (μM) for a test compound at which 50% of the ligand (in this determination, ^3H-Ro 25-6981) bonded to the receptor is displaced. The binding ability of the compounds of the invention was measured in vitro using a minimum of 10 concentrations and repeated at least once. The specific binding at each concentration was then calculated as the % of the maximum specific binding (100%) obtained in the same experiment, in the absence of a test compound. Competitive displacement of ^3H-Ro 25-6981 was observed, with complete displacement of the radioligand from specific binding sites (usually about 0% of specific binding at the highest concentrations tested). An IC50 value was then calculated with all the ten datapoints (% of specific bound) by plotting the data on a semilogarithmic scale with a sigmoidal fit (Log of the molar concentration on X-axis vs. % of specific bound on the Y-axis) using Microsoft Excel fit software or Microcal Origin software. The pooled normalized values were analyzed using a non-linear regression calculation program which provide IC50 with their relative upper and lower 95% confidence limits.

T1 sequence (Q00960 27-1482, other chains not shown): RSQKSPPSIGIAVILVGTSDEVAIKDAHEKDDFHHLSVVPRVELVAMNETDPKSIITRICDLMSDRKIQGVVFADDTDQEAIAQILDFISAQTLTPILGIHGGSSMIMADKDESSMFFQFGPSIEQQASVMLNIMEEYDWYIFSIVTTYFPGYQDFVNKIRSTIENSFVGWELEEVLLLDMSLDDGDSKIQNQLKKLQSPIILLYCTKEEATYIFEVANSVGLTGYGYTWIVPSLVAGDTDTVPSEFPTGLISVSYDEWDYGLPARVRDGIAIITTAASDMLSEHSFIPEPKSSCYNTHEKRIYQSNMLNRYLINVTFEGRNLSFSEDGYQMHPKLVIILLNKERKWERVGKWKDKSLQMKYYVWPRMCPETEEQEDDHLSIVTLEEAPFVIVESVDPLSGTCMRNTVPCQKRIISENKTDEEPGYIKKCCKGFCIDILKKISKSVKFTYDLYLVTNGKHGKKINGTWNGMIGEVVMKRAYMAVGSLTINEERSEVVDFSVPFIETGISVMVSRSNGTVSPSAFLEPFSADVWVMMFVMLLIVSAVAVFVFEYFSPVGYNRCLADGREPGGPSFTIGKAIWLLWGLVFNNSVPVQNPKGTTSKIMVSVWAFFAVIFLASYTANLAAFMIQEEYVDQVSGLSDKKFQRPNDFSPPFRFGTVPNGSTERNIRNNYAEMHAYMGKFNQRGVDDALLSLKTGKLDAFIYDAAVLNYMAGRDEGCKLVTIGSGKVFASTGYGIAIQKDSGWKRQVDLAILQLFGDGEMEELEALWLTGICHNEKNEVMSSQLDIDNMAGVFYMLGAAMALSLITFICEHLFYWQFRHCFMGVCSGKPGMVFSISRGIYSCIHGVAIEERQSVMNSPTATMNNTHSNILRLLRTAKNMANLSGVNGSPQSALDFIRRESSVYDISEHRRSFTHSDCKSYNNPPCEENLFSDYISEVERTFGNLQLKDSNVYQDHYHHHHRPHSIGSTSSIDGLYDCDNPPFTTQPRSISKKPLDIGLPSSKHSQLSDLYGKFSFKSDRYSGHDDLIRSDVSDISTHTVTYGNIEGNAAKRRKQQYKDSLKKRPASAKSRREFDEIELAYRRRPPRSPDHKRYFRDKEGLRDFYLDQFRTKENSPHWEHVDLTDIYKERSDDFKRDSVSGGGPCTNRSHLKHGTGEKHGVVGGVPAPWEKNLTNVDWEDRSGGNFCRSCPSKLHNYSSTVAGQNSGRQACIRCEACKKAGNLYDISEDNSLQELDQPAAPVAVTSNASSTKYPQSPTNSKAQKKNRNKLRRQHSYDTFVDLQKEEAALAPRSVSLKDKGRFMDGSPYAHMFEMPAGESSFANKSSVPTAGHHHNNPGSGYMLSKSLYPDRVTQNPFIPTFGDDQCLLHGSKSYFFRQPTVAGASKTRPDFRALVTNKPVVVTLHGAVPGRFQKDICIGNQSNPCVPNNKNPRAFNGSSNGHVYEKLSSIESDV

IC50 [nM] | Compound
5.3 | CCc1cc(N)cc(N2CCc3ccccc3C2)n1 [Example 5, 2-(3,4-Dihydro-1H-isoquinolin-2-yl)-6-ethyl-pyridin-4-yl-amine]
11 | Nc1cc(CO)nc(N2CCc3ccccc3C2)c1 [Example 6, [4-Amino-6-(3,4-dihydro-1H-isoquinolin-2-yl)-pyridin-2-yl]-methanol]
4 | Cc1cc(N2CCc3ccccc3C2)cc(NCCO)n1 [Example 35, 2-[4-(3,4-Dihydro-1H-isoquinolin-2-yl)-6-methyl-pyridin-2-yl-amino]-ethanol]
11 | Cc1cc(N2CCc3ccccc3C2)cc(N)n1 [Example 32, 4-(3,4-Dihydro-1H-isoquinolin-2-yl)-6-methyl-pyridin-2-yl-amine]
6 | OCCNc1ccnc(N2CCc3ccccc3C2)c1 [Example 9, 2-[2-(3,4-Dihydro-1H-isoquinolin-2-yl)-pyridin-4-yl-amino]-ethanol]
8 | Nc1ccnc(N2CCc3ccccc3C2)c1 [Example 1, 2-(3,4-Dihydro-1H-isoquinolin-2-yl)-pyridin-4-yl-amine]
20 | Cc1cc(N2CCc3ccccc3C2)ccn1 [Example 31, 2-(2-Methyl-pyridin-4-yl)-1,2,3,4-tetrahydro-isoquinoline]
20 | CCOC(=O)C(=O)Nc1cc(N2CCc3ccccc3C2)cc(C)n1 [Example 33, N-[4-(3,4-Dihydro-1H-isoquinolin-2-yl)-6-methyl-pyridin-2-yl]-oxalamic acid ethyl ester]
14 | Cc1cc(N)cc(N2CCc3ccccc3C2)n1 [Example 4, 2-(3,4-Dihydro-1H-isoquinolin-2-yl)-6-methyl-pyridin-4-yl-amine]
11 | Cc1cnc(N2CCc3ccccc3C2)cc1N [Example 3, 2-(3,4-Dihydro-1H-isoquinolin-2-yl)-5-methyl-pyridin-4-yl-amine]
4 | Nc1cc(N2CCc3ccccc3C2)ccn1 [Example 30, 4-(3,4-Dihydro-1H-isoquinolin-2-yl)-pyridin-2-yl-amine]
11 | Cc1cc(NCCO)cc(N2CCc3ccccc3C2)n1 [Example 10, 2-[2-(3,4-Dihydro-1H-isoquinolin-2-yl)-6-methyl-pyridin-4-yl-amino]-ethanol]

system: not given; test: not given; settings: not given

melting point | Compound
100 to 101 °C | Clc1ccc2c(c1)CN(c1ccncc1)CC2 (as salt: hydrochloride) [Example 28, 7-Chloro-2-pyridin-4-yl-1,2,3,4-tetrahydro-isoquinoline]
192 to 195 °C | NCc1cccc(N2CCc3ccccc3C2)n1 (as salt: hydrochloride) [Example 22, C-[6-(3,4-Dihydro-1H-isoquinolin-2-yl)-pyridin-2-yl]-methylamine]
> 160 °C (dec.) | CCOC(=O)C(=O)Nc1cc(N2CCc3ccccc3C2)cc(C)n1 (as salt: hydrochloride) [Example 33, N-[4-(3,4-Dihydro-1H-isoquinolin-2-yl)-6-methyl-pyridin-2-yl]-oxalamic acid ethyl ester]
73 to 74 °C | CCNc1ccnc(N2CCc3ccccc3C2)c1 (as salt: fumarate) [Example 16, [2-(3,4-Dihydro-1H-isoquinolin-2-yl)-pyridin-4-yl]-ethyl-amine]
160 °C | Cc1cc(N2CCc3ccccc3C2)cc(NCCO)n1 (as salt: fumarate) [Example 35, 2-[4-(3,4-Dihydro-1H-isoquinolin-2-yl)-6-methyl-pyridin-2-yl-amino]-ethanol]
> 250 °C | Clc1ccc2c(c1)CCN(c1ccncc1)C2 (as salt: hydrochloride) [Example 27, 6-Chloro-2-pyridin-4-yl-1,2,3,4-tetrahydro-isoquinoline]
258 to 259 °C | Clc1cccc2c1CCN(c1ccncc1)C2 (as salt: hydrochloride) [Example 25, 5-Chloro-2-pyridin-4-yl-1,2,3,4-tetrahydro-isoquinoline]
220 to 221 °C | CN1COCc2c1ccnc2N1CCc2ccccc2C1 (as salt: hydrochloride) [Example 14, 5-(3,4-Dihydro-1H-isoquinolin-2-yl)-1-methyl-1,4-dihydro-2H-pyrido[4,3-d][1,3]oxazine]
178 to 179 °C | Clc1cccc2c1CN(c1ccncc1)CC2 (as salt: fumarate) [Example 26, 8-Chloro-2-pyridin-4-yl-1,2,3,4-tetrahydro-isoquinoline]
109 to 110 °C | Nc1cc(N2CCc3ccccc3C2)nc2c1CCCC2 (as salt: hydrochloride) [Example 7, 2-(3,4-Dihydro-1H-isoquinolin-2-yl)-5,6,7,8-tetrahydro-quinolin-4-yl-amine]
> 270 °C | Cc1cc(N2CCc3ccccc3C2)cc(N)n1 (as salt: fumarate) [Example 32, 4-(3,4-Dihydro-1H-isoquinolin-2-yl)-6-methyl-pyridin-2-yl-amine]
178 to 179 °C | CC1CN(c2cc(N)ccn2)Cc2ccccc21 (racemic) (as salt: fumarate) [Example 2, Rac.-2-(4-Methyl-3,4-dihydro-1H-isoquinolin-2-yl)-pyridin-4-yl-amine]
224 to 227 °C | CC1CN(c2ccncc2)Cc2ccccc21 (racemic) (as salt: hydrochloride) [Example 29, rac.-4-Methyl-2-pyridin-4-yl-1,2,3,4-tetrahydro-isoquinoline]
160 to 162 °C | Cc1cc(N2CCc3ccccc3C2)cc(NC(=O)CO)n1 [Example 34, N-[4-(3,4-Dihydro-1H-isoquinolin-2-yl)-6-methyl-pyridin-2-yl]-2-hydroxy-acetamide]
160 to 161 °C | Nc1cc(N2CCc3ccccc3C2)ccn1 [Example 30, 4-(3,4-Dihydro-1H-isoquinolin-2-yl)-pyridin-2-yl-amine]
155 to 156 °C | Cc1cc(N2CCc3ccccc3C2)ccn1 (as salt: fumarate) [Example 31, 2-(2-Methyl-pyridin-4-yl)-1,2,3,4-tetrahydro-isoquinoline]
